Test results taken from patent US20260198497A1, “A BENZENE RING-SUBSTITUTED PYRIMIDINECARBOXYLIC ACID COMPOUND, PREPARATION METHOD THEREFOR, HERBICIDAL COMPOSITION AND APPLICATION THEREOF” (QINGDAO KINGAGROOT CHEMICAL COMPOUND CO., LTD., priority 2023, published 2026).

How the values were obtained:
Lindernia procumbens = assay: Activity assay of compositions, post-emergence spray of stems and leaves; format: in vivo; settings: for Control effect of B applied alone in a corresponding dose (%): 21 days
Source text: (§1) The required active ingredient B was purchased from a reagent company or a technical material manufacturer or synthesized by a conventional method. The active ingredient A was Compound 74 in Table 1. The technical materials were all dissolved with acetone solvents and diluted with aqueous solution of 0.1% Tween® 80 emulsifier, which should be used immediately after dilution.
(§2) Weeds were cultivated by a pot culture method. […] Weed seeds with plump and uniform grains were selected, soaked in lukewarm water at 25° C. for 6 hours, and accelerated to germinate in a 28° C. biochemical incubator (in darkness). The weed seeds that had just germinated were evenly placed on the surface of the soil and then covered with 0.5-1 cm soil according to the sizes of seeds.
(§3) The weeds were cultured in a controllable sunlight greenhouse at 20-30° C., in natural light, and with relative humidity of 57%-72%. The soil was loam with an organic matter content of 1.63%, a pH value of 7.1, alkali-hydrolyzable nitrogen of 84.3 mg/kg, rapidly available phosphorus of 38.5 mg/kg, and rapidly available potassium of 82.1 mg/kg.
(§4) Each treatment was repeated 4 times for 3 pots. Each pot was seeded with 20 weed seeds.
(§5) The drugs were applied once in total in the experiment. When at the stage of 1.5-2 leaves, the weeds were thinned out to maintain 10 strains per pot. Thirty strains were kept in each treatment and then continued to be cultured until the Erigeron canadensis reached 10 cm tall and other weeds in their 3-4 leaf stage for further treatment.
(§6) The well-cultured test materials were evenly placed on a 0.5 m^2 platform and foliage-sprayed by the 3WP-2000-type walking spray tower at a dosage of […] and a spray pressure of 0.3 MPa. After all the drug solution was sprayed, the air valve was closed. And 30 seconds later, the door of the spray tower was opened, and the nutritional bowl was taken out. Next, the air valve was opened, and the spray tube was cleaned by spraying 50 ml of water. The test materials were transferred to and routinely cultured in a greenhouse after the treatment.
(§7) A method for investigating absolute numbers was employed. The whole seedlings of the survival weeds were cut along the soil surface with a blade, and the fresh weight of the weeds was weighed by an analytical balance. For dead weeds, the fresh weight thereof was considered zero.
(§8) The investigation was performed 21 days after the treatment for once in total.
(§9) The theoretical fresh weight inhibition rate of a mixed combination of each treatment was calculated by the Gowing method (E0=X+Y−X*Y/100). Then compared with the measured inhibition rate (E), the type of the combined action of the combination of the two on weeds was evaluated, which was a synergistic effect when E−E0>10; an antagonistic effect when E−E0<−10%; an additional effect when −10≤E−E0≤100. An optimal ratio was determined according to factors such as the actual control effects, characteristics of herbicides, balance of the formulation, etc. In the formula, X represents the fresh weight inhibition rate of the active ingredient A in a dosage of P; Y represents the fresh weight inhibition rate of the active ingredient B in a dosage of Q. The statistical results are shown in Table 5 below.

Monochoria vaginalis [1] = assay: as above; format: in vivo; settings: for Control effect of B applied alone in a corresponding dose (%): 21 days
Experimental: as §1, with “The active ingredient A was Compound 74 in Table 1.” left out
as §2, §3, §4, §5, §6, §7, §8, §9

Pontederia korsakowii = assay: Control effect evaluation on weeds in paddy fields; format: in vivo; settings: 75 g a.i./ha, paddy pot, 14th day after treatment, seeds resistant to pyrazosulfuron-ethyl
Source text: (§10) The criteria for activity levels of plant damage (i.e., growth control rate) are as follows: • Level 9: completely dead; • Level 8: growth control rate is greater than or equal to 90% and less than 100%; • Level 7: growth control rate is greater than or equal to 80% and less than 90%; • Level 6: growth control rate is greater than or equal to 70% and less than 80%; • Level 5: growth control rate is greater than or equal to 50% and less than 70%; • Level 4: growth control rate is greater than or equal to 30% and less than 50%; • Level 3: growth control rate is greater than or equal to 20% and less than 30%; • Level 2: growth control rate is greater than or equal to 10% and less than 20%; • Level 1: growth control rate is less than 10%; • Level 0: no effect.
(§11) The above growth control rates are fresh weight control rates.
(§12) After paddy field soil was loaded into a 1/1,000,000 ha pot, the seeds of Monochoria vaginalis, Pontederia korsakowii and Bidens tripartita were sowed and gently covered with soil, then left to stand in a greenhouse with water storage of 0.5-1 cm deep. The tuber of Sagittaria trifolia was planted on the next day or 2 days later. The water storage was kept at a depth of 3-4 cm thereafter. When the Monochoria vaginalis, Pontederia korsakowii and Bidens tripartita reached their 0.5-leaf stages and the Sagittaria trifolia reached the primary leaf stage, WP or SC aqueous dilutions of the compounds of the present invention formulated according to customary formulation methods were homogeneously dripped for treatment to the specified effective amount using pipettes.
(§13) The effects were evaluated according to the above-mentioned criteria for activity levels.

Monochoria vaginalis [2] = assay: Control effect evaluation on weeds in paddy fields; format: in vivo; settings: 75 g a.i./ha, paddy pot, 14th day after treatment, seeds resistant to pyrazosulfuron-ethyl
Source text: as §10, §11, §12, §13

Bidens tripartita = assay: Control effect evaluation on weeds in paddy fields; format: in vivo; settings: 75 g a.i./ha, paddy pot, 14th day after treatment, seeds resistant to pyrazosulfuron-ethyl
Source text: as §10, §11, §12, §13

[3] = tested on: paddy rice (japonica rice); settings: japonica, paddy rice, in vivo, 21 days
Source text: as §10, §11
In addition, after being loaded into the 1/1,000,000 ha pot, the paddy field soil was leveled to keep the water storage at a depth of 3-4 cm. The paddy rice (japonica rice) at 3-leaf stage was transplanted at a transplanting depth of 3 cm on the next day. The compounds of the present invention were treated in the same manner as above on the 5th day after the transplantation.
as §13

Maize = assay: Post-emergence test, crop safety; settings: in vivo, 3 weeks
Source text: as §10, §11
(§14) Monocotyledonous and dicotyledonous weed seeds (Descurainia sophia, Capsella bursa-pastoris, Abutilon theophrasti, Galium spurium, Stellaria media, Lithospermum arvense, Rorippa indica, Alopecurus aequalis, Alopecurus japonicus, Eleusine indica, Beckmannia syzigachne, Sclerochloa dura, Erigeron canadensis, Phleum paniculatum, Veronica, Bromus japonicus, Aegilops tauschii, Phalaris arundinacea, Amaranthus retroflexus, Chenopodium, Commelina communis, Cichorium endivia, Convolvulus arvensis, Cirsium arvense, Solanum nigrum, Acalypha australis, Digitaria sanguinalis, Echinochloa crusgalli, Setaria viridis, Setaria pumila, Leptochloa chinensis, Monochoria vaginalis, Sagittaria trifolia, Schoenoplectiella juncoides, Cyperus rotundus, Cyperus iria, Cyperus difformis, Fimbristylis, Portulaca oleracea, Xanthium sibiricum, Ipomoea nil, Eschenbachia japonica, etc.) and major crop seeds (wheat, maize, paddy rice, soybean, cotton, oilseed rape, millet, sorghum, potato, sesame, castor plant, Chinese cabbage, radish, etc.) were placed in plastic pots filled with soil and then covered with 0.5-2 cm of soil to allow them to grow in a favorable greenhouse environment. Two weeks after sowing, the test plants were treated at the stage of 2-3 leaves. The test compounds of the present invention were individually dissolved with acetone, then added with Tween® 80, with 1.5 L/ha of methyl oleate emulsifiable concentrate as a synergist, diluted into solution of a certain concentration using a certain amount of water, and sprayed to plants using a spray tower. After drug application, the experimental results on weeds were collected after 3 weeks of cultivation in a greenhouse. The compounds were applied at 120, 60, 30, and 15 g a.i./ha in triplicate, and the results were averaged.

Paddy rice = assay: Post-emergence test, crop safety; settings: in vivo, 3 weeks
Source text: as §10, §11, §14

Wheat = assay: Post-emergence test, crop safety; settings: in vivo, 3 weeks
Source text: as §10, §11, §14

Oilseed rape = assay: Post-emergence test, crop safety; settings: in vivo, 3 weeks
Source text: as §10, §11, §14

Chinese cabbage = assay: Post-emergence test, crop safety; settings: in vivo, 3 weeks
Source text: as §10, §11, §14

Radish = assay: Post-emergence test, crop safety; settings: in vivo, 3 weeks
Source text: as §10, §11, §14

Veronica [4] = assay: Post-emergence test on weeds; format: in vivo; parameters: key: 0 = no effect, 9 = completely dead (levels by growth control rate); settings: 30 g a.i./ha, 3 weeks after application
Source text: as §10, §11, §14

Veronica [5] = assay: Activity assay of compositions, post-emergence spray of stems and leaves; format: in vivo; settings: A 3 g a.i./ha, fresh weight inhibition, 21 days after treatment
Experimental: as §1, with “The active ingredient A was Compound 74 in Table 1.” left out
as §2, §4, §5, §6, §7, §8
as §9, with “Then compared with the measured inhibition rate (E), the type of the combined action of the combination of the two on weeds was evaluated, which was a synergistic effect when E−E0>10; an antagonistic effect when E−E0<−10%; an additional effect when −10≤E−E0≤100.” left out

Euphorbia helioscopia = assay: as above; format: in vivo; settings: A 3 g a.i./ha, fresh weight inhibition, 21 days after treatment, listed as A
Source text: as §1, §2, §3, §4, §5, §6, §7, §8, §9

[6] = A 3 g a.i./ha, fresh weight inhibition, 21 days after treatment

| activity level, Paddy rice [3] | Structure (SMILES) | activity level, Pontederia korsakowii (Pontederia korsakowii) | activity level, Monochoria vaginalis (Monochoria vaginalis [2]) | activity level, Bidens tripartita (Bidens tripartita) | activity level of plant damage (growth control rate), Maize (Maize) | activity level of plant damage (growth control rate), Paddy rice (Paddy rice) | activity level of plant damage (growth control rate), Wheat (Wheat) | activity level of plant damage (growth control rate), Oilseed rape (Oilseed rape) | activity level of plant damage (growth control rate), Chinese cabbage (Chinese cabbage) | activity level of plant damage (growth control rate), Radish (Radish) | activity level of plant damage (growth control rate), Veronica (Veronica [4]) | also measured |
| --- | --- | --- | --- | --- | --- | --- | --- | --- | --- | --- | --- | --- |
|  | CC(C)C12CCC(C)(O1)C(OCc1c(F)cccc1Br)C2 (stereo not drawn) |  |  |  |  |  |  |  |  |  |  | Control effect of B applied alone in a corresponding dose (%) (Lindernia procumbens; B 7.5 g a.i./ha): 42.8%; Control effect of B applied alone in a corresponding dose (%) (Lindernia procumbens; B 15 g a.i./ha): 60.7% |
|  | CC(C)N1C(=O)c2ccccc2NS1(=O)=O [Bentazone, bentazone] |  |  |  |  |  |  |  |  |  |  | Control effect of B applied alone in a corresponding dose (%) (Monochoria vaginalis [1]; B 150 g a.i./ha): 45.2%; Control effect of B applied alone in a corresponding dose (%) (Monochoria vaginalis [1]; B 300 g a.i./ha): 60.5% |
| 0 | COC(=O)c1nc(-c2ccc(C(F)(F)F)c(OC)c2F)nc(N)c1OC [Compound 3] | 9 | 9 | 9 | 0 | 0 | 0 | 0 | 0 | 0 | 9 |  |
| 0 | CCOC(=O)c1nc(-c2ccc(C(F)(F)F)c(OC)c2F)nc(N)c1OC [Compound 24] | 9 | 9 | 9 | 0 | 0 | 0 | 0 | 0 | 0 | 9 |  |
| 0 | COc1c(N)nc(-c2ccc(C(F)(F)F)c(OC)c2F)nc1C(=O)OCC(F)(F)F [Compound 62] | 9 | 9 | 9 | 0 | 0 | 0 | 0 | 0 | 0 | 9 |  |
|  | COCCOC(=O)c1nc(-c2ccc(C(F)(F)F)c(OC)c2F)nc(N)c1OC [Compound 74] |  |  |  | 0 | 0 | 0 | 0 | 0 | 0 | 9 | Control effect of A applied alone in a corresponding dose (%) (Veronica [5]): 62.3%; Control effect of A applied alone in a corresponding dose (%) (Monochoria vaginalis [1]; [6]): 66.4%; Control effect of A applied alone in a corresponding dose (%) (Lindernia procumbens; [6]): 37.7%; Control effect of A applied alone in a corresponding dose (%) (Euphorbia helioscopia): 58.0% |
| 0 | COc1c(N)nc(-c2ccc(C(F)(F)F)c(OC)c2F)nc1C(=O)ON=C(C)C [Compound 106] | 9 | 9 | 9 | 0 | 0 | 0 | 0 | 0 | 0 | 9 |  |
| 0 | COc1c(N)nc(-c2ccc(C(F)(F)F)c(OC)c2F)nc1C(=O)OC1CC1 [Compound 116] | 9 | 9 | 9 | 0 | 0 | 0 | 0 | 0 | 0 | 9 |  |
|  | CCC(=O)Nc1ccc(Cl)c(Cl)c1 [Propanil, propanil] |  |  |  |  |  |  |  |  |  |  | Control effect of B applied alone in a corresponding dose (%) (Monochoria vaginalis [1]; B 600 g a.i./ha): 22.1%; Control effect of B applied alone in a corresponding dose (%) (Monochoria vaginalis [1]; B 1200 g a.i./ha): 37.4% |
